The subject of the assay is PTK2 kidney epithelial cells. Briefly: Cellular localization by live fluorescence microscopy. Format: cell-based. Conditions: 2 μM, 2 hours incubation, before/without 365 nm light exposure; hydrochloride. The source says:
The intracellular localization of the DOX-PCB nanoparticles and pure DOX was studied using the PTK2 epithelial cell line. These cells were used because they are susceptible to DOX and remain flat during mitosis, allowing for enhanced visualization of the nuclear region. This visualization capability was important since one of the main therapeutic modes of action for DOX is through DNA intercalation. The DOX-PCB nanoparticles and pure DOX are both naturally fluorescent which allowed them to be easily tracked through the cell. The PTK2 cells were plated in glass bottom petri dishes (MatTek Corporation, Ashland, Mass.) and were incubated in advanced MEM Media from Gibco (Invitrogen, Grand Island, N.Y.) with 2% fetal bovine serum, nonessential amino acids, 110 mg/L sodium pyruvate, and without penicillin-streptomycin or L-Glutamine.
A 1 ml media solution of DOX-PCB nanoparticles was prepared by first adding 10×DPBS to a 4.1 μM solution of DOX-PCB nanoparticles in water to achieve a 1×DPBS concentration, and then adding the resulting solution to a phenol-red free formulation of the advanced MEM media described above to achieve a final DOX-PCB content of 2 μM. This spiked media sample was then added to the glass bottom petri dish along with PTK2 cells seeded which had the previous incubation media removed. […]

This passage reports intracellular localization results from patent US20200000916A1, “REGIONALLY ACTIVATED DRUG DELIVERY NANOPARTICLES” (The Regents of the University of California, priority 2013, published 2020).

Entries after “also recorded” stand apart in the source; their conditions may differ.

As to `COc1cccc2c1C(=O)c1c(O)c3c(c(O)c1C2=O)C[C@@](O)(C(=O)CO)C[C@@H]3O[C@H]1C[C@H](N)[C@H](O)[C@H](C)O1.Cl` [DOX, Doxorubicin hydrochloride], the intracellular localization entry is recorded as “strongly associate with the cell nuclei; also recorded: associate strongly with the cell nuclei”.
